Measurements published in publication PMC7802074, “Azanitrile Inhibitors of the SmCB1 Protease Target Are Lethal to Schistosoma mansoni: Structural and Mechanistic Insights into Chemotype Reactivity” (ACS Infectious Diseases, 2020).
Values joined by “and” are separate entries in the source; they are usually repeats but may differ in a detail not shown here. Identical values can stand only once.

Columns and labels:
[1] = Cytotoxicity, XTT test, HepG2; format: cell-based; conditions: human, % viability vs. untreated cells, read-out: Cell line viability after 72 h; for viability at 72 h, 1 µM: HepG2, 1 µM; for viability at 72 h, 10 µM: HepG2, 10 µM
Protocol: (§1) T able S4. […]
(§2) Cell line viability after 72 h (%)a
(§3) Inhibitor 1 µM 10 µM 1 µM 10 µM
(§4) aCytotoxicity of the inhibitors towards human cell lines are expressed as % viability vs. untreated cells. Cells were treated with
(§5) the indicated concentration of the compounds for 72 h and assayed by means of the XTT test (as described previously 12).
(§6) Standard deviation values were within 10% of the mean of tetraplicates. […]

[2] = Cytotoxicity, XTT test, HUVEC; format: cell-based; conditions: human, % viability vs. untreated cells, read-out: Cell line viability after 72 h
Protocol: as §1, §2, §3, §4, §5, §6

recombinant SmCB1 = recombinant SmCB1 (Schistosoma mansoni, UniProt Q8MNY2, T185A/T300A); test: SmCB1 kinetic inhibition assay with fluorogenic substrate Cbz-Phe-Arg-AMC; format: biochemical; conditions: substrate Cbz-Phe-Arg-AMC; for Ki: SmCB1 inhibition Ki, kinetic activity assay, pH 5.5, 37 °C; for SmCB1 inhibition k2nd (second-order rate constant): slow-binding azadipeptide nitriles
recombinant SmCB1, sequence (Q8MNY2 87-340 T185A/T300A): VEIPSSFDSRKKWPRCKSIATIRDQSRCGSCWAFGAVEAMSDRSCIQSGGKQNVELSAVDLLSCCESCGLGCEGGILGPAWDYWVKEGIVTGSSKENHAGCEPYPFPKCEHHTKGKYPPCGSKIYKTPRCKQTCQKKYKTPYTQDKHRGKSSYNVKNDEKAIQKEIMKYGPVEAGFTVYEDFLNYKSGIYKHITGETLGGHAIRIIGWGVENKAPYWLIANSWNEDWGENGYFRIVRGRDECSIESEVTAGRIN
Protocol: Inhibition measurements were performed in triplicates in 96-well microplates (100 μL assay volume) at 37 °C. SmCB1 (20–40 pM) was added to a mixture of the fluorogenic substrate Cbz-Phe-Arg-AMC (20 μM) and an inhibitor (0–100 μM) in 0.1 M sodium acetate, pH 5.5, containing 2.5 mM dithiothreitol and 0.1% PEG 6000. The substrate hydrolysis was monitored in an Infinite M1000 microplate reader (Tecan, Männedorf, Switzerland) at excitation and emission wavelengths of 360 and 465 nm, respectively, for up to 15 and 60 min for fast- and slow-binding inhibitors, respectively. […] For slow-binding inhibitors, an observed first-order rate constant kobs was calculated at each inhibitor concentration by fitting the progress curve to the equation P = vst + (vi – vs)(1 – […])/kobs + d, where P is the product formation, vs is the steady-state velocity, t is the reaction time, vi is the initial velocity, and d is the offset. The inhibition constant Ki′ was determined by nonlinear regression using the equation vs/v0 = 1/(1 + [I]/Ki′). The true inhibition constants Ki were then calculated using the equation Ki = Ki′/(1 + [S]/Km), where [S] is the substrate concentration and Km is the Michaelis constant. The apparent second-order rate constant k2nd′ was determined by fitting to the linear equation kobs = k2nd′[I] + koff, where koff is the first-order rate constants for the dissociation of the enzyme–inhibitor complex and the true constant k2nd was calculated by the correction k2nd = k2nd′(1 + [S]/Km). […] In none of the assay systems did the final concentration of DMSO exceed 1.5%.

[3] = test system: S. mansoni newly transformed schistosomula (NTS); test: Schistosome phenotypic assay; format: cell-based, Schistosoma mansoni; conditions: for Severity score Day 1 / Severity score Day 2 / Severity score Day 3 / Severity score Day 4: 10 μM inhibitor, scale 0 (no effect) to 4 (severe); for Severity score Day 1: 24 h; for Severity score Day 2: 48 h
Protocol: Newly transformed schistosomula (NTS) of S. mansoni were prepared by mechanically transforming infective larvae (cercariae) as described previously.[70],[71] NTS (200–300 parasites) were incubated in 200 μL of Basch Medium 169 containing 5% FBS, 100 U mL^–1 penicillin, and 100 μg mL^–1 streptomycin at 5% CO2 and 37 °C.[70],[72],[73] Inhibitors were added at the final concentration of 10 μM,[20],[69] and changes in phenotypes were observed every 24 h for up to 4 days. A constrained nomenclature of “descriptors” is used to record the multiple and dynamic changes in movement, shape, and translucence of which the schistosome parasite is capable (Table S3).[70] These descriptors are then converted into an ordinal “severity score” system from 0 (no effect) to 4 (maximum effect), which allows for the relative comparison of compound effects, as described.[74],[75] Images of NTS were captured using a Zeiss Axiovert 40 C inverted microscope (10× objective) and a Zeiss AxioCam MRc digital camera controlled by AxioVision 40 (v. 4.8.1.0) software.

Work on CCCCCN(C#N)N(C)C(=O)[C@H](Cc1ccccc1)NC(=O)OCc1ccccc1 [Compound 9a] yielded a viability at 72 h, 1 µM [1] of 85%, a viability at 72 h, 10 µM [1] of 78% and a viability at 72 h, 1 µM [2] of 104%. The viability at 72 h, 10 µM [2] was 81%, the Ki (recombinant SmCB1) was 6.2 ± 0.5 nM and the “SmCB1 inhibition k2nd (second-order rate constant)” value (recombinant SmCB1) was 2.1 10^3 M^-1 s^-1 and 2.1 ± 0.3 10^3 M^-1 s^-1. The “Descriptors Day 1 (phenotypic changes)” value ([3]; 10 µM inhibitor) was “Deg”, the “Descriptors Day 2 (phenotypic changes)” value ([3]; 10 µM inhibitor) was “Deg” and the “Severity score Day 1” value [3] was 4 and 4/4. The “Severity score Day 2” value [3] was 4 and 4/4, the “Severity score Day 3” value [3] was 4 and the “Severity score Day 4” value [3] was 4.

CN(C#N)N(C)C(=O)[C@H](CC1CCCCC1)NC(=O)OCc1ccccc1 [Compound 11a] gave a viability at 72 h, 1 µM [1] of 89%, a viability at 72 h, 10 µM [1] of 109% and a viability at 72 h, 1 µM [2] of 92%. The viability at 72 h, 10 µM [2] was 85%, the Ki (recombinant SmCB1) was 4.6 ± 0.5 nM and the “SmCB1 inhibition k2nd (second-order rate constant)” value (recombinant SmCB1) was 32.7 ± 2.8 10^3 M^-1 s^-1. The “Descriptors Day 1 (phenotypic changes)” value ([3]; 10 µM inhibitor) was “R, Unc”, the “Descriptors Day 2 (phenotypic changes)” value ([3]; 10 µM inhibitor) was “Deg” and the “Descriptors Day 3 (phenotypic changes)” value ([3]; 10 µM inhibitor) was “Deg”. The “Severity score Day 1” value [3] was 2, the “Severity score Day 2” value [3] was 4 and the “Severity score Day 3” value [3] was 4. The “Severity score Day 4” value [3] was 4.
